Bridge positions count the residues as written; N and C are the ends. Square brackets hold non-standard residues; d marks the D form. Peptide text beside a SMILES is read from it. * marks the point of attachment. X1 = CC[C@H](C)CCCCC(=O)*; Dab = NCC[C@H](N)C(=O)O
Experiments:
[1] = biological target: T1, megalin of rat kidney homogenate (Rattus norvegicus, UniProt P98158); test: Binding of cyanocobalamin derivatives to renal megalin (micromethod in Eppendorf tubes, HPLC of supernatant); settings: derivative in supernatant after centrifugation determined by HPLC
T1 construct: megalin of rat kidney homogenate; from tissue; host or cells: rat kidney homogenate
Protocol: The test was carried out by a micromethod in Eppendorf tubes on the ability of cyanocobalamin derivatives to bind to megalin: after centrifugation, the bound derivative together with megalin remained in the sediment, and the percentage of the remaining unreacted cyanocobalamin derivative in the supernatant was determined using HPLC on a Milichrom A-02 liquid chromatograph.

[2] = Degree of destruction of kidney tissue: urinary NGAL and NAG (ELISA); assay type: in vivo, rats
Protocol: The degree of destruction of kidney tissue was determined by the concentration in the urine of acetyl-beta-glucosaminidase (N-acetyl-beta-d-glucosaminidase) (NAG) and neutrophilic gelatinase-associated lipocalin (neutrophil gelatinase-associated lipocalin) (NGAL) (Table 5).
The concentrations of NGAL and NAG in urine were determined using ELISA-text systems on a StatFax303+reader.

[3] = Accumulation of colistin in the kidneys after intravenous injection; assay type: in vivo; settings: rats, colistin 0.5 mg/kg, SCDC 2 mg/kg
Protocol: In this experiment was determined, the accumulation of colistin in the kidneys of rats after intravenous injection of Polyfro (colistin, SCDC and liposomal cholecalciferol). Concentrations of colistin (CC), SCDC/cholecalciferol (CCF) were used based on preliminary modeling (the number of binding sites in one molecule, multiplied by their number in one megalin molecule, the molecular weight of megalin and the approximate amount of megalin in one kidney and the weight of the kidney) The result was the required amount of SCDC about 2 mg/kg of weight. For CS, a subtoxic dose was selected (based on the instructions). This is an experiment on the “displacement” of polymyxin from the kidneys with a synergistic combination of SCDC/HCF. As a result, about half of the polymyxin was displaced from the kidneys by SCDC/HCF. All components of CC, SCDC/CCF were determined in the sediment of renal homogenate and supernatant by HPLC. […] The content of colistin in the kidneys (A) and its concentration in terms of the weight of the kidneys (μg/g) (B) are shown in FIG. 1.
All data are statistically significant and differences between groups and controls are significant.

[4] = Table 5, rats, i.v. 1 time per day for 10 days, 0.5/15 mg/kg polymyxin/SCDC

T1 sequence (P98158 26-4660): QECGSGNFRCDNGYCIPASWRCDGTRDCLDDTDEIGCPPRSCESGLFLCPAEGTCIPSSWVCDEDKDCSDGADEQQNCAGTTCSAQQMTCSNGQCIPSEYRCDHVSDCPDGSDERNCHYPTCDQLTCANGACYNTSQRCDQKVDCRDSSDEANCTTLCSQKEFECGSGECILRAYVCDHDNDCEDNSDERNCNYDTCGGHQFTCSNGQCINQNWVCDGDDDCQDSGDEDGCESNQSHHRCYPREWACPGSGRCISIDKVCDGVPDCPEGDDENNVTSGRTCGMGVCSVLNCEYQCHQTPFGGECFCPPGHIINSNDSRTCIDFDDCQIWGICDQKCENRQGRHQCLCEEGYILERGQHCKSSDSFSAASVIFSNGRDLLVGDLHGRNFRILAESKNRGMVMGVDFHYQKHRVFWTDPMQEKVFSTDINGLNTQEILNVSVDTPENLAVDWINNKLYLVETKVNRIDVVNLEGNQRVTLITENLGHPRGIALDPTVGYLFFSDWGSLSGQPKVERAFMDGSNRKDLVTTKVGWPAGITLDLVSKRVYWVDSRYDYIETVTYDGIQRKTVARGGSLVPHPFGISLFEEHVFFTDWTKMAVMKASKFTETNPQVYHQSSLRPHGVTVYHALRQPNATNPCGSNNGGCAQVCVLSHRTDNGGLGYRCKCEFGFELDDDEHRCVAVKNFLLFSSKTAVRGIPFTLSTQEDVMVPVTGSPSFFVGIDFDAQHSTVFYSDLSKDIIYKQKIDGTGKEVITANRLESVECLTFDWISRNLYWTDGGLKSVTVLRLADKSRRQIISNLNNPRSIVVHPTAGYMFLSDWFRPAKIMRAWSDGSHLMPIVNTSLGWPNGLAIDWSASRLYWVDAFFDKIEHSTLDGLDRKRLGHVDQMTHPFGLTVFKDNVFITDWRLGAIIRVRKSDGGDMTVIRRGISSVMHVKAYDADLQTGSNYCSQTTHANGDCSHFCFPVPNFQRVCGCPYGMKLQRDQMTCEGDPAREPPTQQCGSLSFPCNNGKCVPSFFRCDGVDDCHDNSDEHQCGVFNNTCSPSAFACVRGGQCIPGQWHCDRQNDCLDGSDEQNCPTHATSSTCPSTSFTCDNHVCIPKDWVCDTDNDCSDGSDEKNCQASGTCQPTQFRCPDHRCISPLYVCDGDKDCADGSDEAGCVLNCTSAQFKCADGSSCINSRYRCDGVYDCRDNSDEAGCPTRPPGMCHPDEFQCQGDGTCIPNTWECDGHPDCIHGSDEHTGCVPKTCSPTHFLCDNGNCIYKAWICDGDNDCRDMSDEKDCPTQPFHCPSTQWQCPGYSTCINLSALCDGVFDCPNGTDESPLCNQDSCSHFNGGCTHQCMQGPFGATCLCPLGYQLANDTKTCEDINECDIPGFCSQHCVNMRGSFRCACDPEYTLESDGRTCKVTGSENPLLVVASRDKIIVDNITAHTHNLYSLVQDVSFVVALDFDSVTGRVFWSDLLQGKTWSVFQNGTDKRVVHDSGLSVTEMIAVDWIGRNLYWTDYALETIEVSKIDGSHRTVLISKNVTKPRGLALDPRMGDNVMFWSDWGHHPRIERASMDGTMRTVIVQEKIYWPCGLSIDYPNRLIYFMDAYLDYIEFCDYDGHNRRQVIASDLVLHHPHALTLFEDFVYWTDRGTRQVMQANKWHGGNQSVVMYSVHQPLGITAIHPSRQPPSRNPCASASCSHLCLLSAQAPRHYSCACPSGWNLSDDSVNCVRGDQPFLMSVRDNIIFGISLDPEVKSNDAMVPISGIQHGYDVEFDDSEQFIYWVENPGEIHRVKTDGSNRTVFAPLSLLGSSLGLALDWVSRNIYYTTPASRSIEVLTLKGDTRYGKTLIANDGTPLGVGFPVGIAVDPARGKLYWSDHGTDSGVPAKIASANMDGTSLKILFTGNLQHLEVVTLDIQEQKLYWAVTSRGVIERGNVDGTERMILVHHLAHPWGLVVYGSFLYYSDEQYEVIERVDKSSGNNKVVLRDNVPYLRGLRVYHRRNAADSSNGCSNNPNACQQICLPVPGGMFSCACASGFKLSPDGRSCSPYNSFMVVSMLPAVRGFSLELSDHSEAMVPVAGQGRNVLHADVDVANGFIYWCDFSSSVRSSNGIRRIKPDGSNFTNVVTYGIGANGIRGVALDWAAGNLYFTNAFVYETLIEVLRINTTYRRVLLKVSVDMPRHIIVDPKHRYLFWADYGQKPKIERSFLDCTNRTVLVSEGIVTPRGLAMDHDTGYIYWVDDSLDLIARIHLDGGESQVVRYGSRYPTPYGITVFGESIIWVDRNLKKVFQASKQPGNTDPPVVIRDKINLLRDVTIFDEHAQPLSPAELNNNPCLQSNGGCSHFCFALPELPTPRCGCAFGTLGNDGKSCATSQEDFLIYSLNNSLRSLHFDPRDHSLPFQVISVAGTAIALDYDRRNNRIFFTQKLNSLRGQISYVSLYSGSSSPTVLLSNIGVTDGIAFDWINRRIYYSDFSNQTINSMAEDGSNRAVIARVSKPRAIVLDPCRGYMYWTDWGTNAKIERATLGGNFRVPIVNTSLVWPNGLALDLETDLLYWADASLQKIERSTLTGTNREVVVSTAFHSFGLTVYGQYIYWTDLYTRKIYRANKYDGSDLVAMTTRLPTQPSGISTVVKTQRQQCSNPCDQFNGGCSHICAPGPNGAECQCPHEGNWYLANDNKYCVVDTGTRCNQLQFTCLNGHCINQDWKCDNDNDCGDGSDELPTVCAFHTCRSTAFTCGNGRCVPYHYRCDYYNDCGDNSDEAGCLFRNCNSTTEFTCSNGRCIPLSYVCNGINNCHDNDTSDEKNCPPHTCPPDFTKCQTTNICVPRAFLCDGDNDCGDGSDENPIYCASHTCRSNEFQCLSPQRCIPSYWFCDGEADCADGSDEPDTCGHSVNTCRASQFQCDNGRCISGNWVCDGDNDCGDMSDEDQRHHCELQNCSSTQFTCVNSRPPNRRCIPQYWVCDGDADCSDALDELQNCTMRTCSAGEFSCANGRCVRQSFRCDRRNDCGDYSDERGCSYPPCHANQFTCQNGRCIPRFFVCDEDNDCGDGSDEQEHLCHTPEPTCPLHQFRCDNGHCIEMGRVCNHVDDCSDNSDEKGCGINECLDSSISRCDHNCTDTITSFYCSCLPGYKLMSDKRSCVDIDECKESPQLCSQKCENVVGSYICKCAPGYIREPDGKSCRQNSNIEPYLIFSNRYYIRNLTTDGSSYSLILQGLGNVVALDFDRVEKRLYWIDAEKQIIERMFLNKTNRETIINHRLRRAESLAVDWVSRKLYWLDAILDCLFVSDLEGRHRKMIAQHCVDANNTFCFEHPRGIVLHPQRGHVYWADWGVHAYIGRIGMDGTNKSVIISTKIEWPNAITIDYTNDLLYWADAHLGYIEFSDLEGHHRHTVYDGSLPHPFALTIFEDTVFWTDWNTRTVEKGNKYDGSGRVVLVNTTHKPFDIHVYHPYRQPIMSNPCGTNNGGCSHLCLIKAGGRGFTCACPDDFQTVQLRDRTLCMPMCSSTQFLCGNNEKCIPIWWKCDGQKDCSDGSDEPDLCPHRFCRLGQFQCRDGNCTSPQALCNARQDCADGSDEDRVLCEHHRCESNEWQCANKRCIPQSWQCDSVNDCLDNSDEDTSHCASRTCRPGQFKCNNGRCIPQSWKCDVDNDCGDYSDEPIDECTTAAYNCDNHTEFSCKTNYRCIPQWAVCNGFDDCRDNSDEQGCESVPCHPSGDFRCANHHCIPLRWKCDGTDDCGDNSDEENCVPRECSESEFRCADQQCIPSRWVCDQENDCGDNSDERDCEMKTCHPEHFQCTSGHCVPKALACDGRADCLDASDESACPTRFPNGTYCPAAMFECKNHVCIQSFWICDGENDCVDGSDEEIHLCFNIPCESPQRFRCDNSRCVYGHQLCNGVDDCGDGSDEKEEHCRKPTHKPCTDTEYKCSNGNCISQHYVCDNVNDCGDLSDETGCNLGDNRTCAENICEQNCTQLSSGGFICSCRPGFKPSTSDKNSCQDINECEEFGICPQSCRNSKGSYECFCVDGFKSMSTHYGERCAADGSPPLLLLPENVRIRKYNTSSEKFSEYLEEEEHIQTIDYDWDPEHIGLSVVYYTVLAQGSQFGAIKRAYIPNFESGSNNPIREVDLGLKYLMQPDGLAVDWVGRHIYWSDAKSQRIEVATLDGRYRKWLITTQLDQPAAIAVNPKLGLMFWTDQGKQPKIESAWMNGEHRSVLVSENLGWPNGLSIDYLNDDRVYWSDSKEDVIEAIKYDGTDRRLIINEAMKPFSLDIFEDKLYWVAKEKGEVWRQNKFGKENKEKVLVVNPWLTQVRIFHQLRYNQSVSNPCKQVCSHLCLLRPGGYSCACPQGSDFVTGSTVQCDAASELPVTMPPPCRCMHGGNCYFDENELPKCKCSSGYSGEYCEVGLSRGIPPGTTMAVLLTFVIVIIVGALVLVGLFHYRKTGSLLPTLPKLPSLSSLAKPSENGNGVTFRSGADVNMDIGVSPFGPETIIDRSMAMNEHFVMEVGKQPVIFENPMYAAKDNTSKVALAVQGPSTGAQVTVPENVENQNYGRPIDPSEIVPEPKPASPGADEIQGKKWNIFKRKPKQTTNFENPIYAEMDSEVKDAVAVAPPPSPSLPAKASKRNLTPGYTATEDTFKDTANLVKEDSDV

For cyanocobalamin [derivative 11], the “% bound derivative” value [1] was 52%.
In the case of “trisuccinyl-cyanocobalamin [derivative 30]”, the “% bound derivative” value [1] is reported as 6%.
In the case of `CC[C@H](C)CCCCC(=O)N[C@@H](CCN)C(=O)N[C@H](C(=O)N[C@@H](CCN)C(=O)N[C@H]1CCNC(=O)[C@H]([C@@H](C)O)NC(=O)[C@H](CCN)NC(=O)[C@H](CCN)NC(=O)[C@H](CC(C)C)NC(=O)[C@@H](CC(C)C)NC(=O)[C@H](CCN)NC1=O)[C@@H](C)O` [Colistin, colistin] (X1-[Dab]T[Dab][Dab][Dab][dL]L[Dab][Dab]T; lactam 4-C), the “Urinary Excretion of NGAL” value [2, 4] is reported as 775 ± 33 µg/h, the “Urinary NAG Excretion” value [2, 4] is reported as 2578 ± 95 µg/h and the “Urinary Excretion of NGAL” value ([2]; Table 6, n = 15) is reported as 775 ± 33 µg/h. The “Urinary NAG Excretion” value ([2]; Table 6, n = 15) was 2578 ± 95 µg/h and the “Accumulation of colistin in the kidneys” value [3] was 20.5 ± 2.5 µg.
With “triacetyl-cyanocobalamin [derivative 31]” the “% bound derivative” value [1] was 7%.

Reference: patent publication US11191806B2, “Polymyxin-based pharmaceutical composition for treating infectious diseases” (priority 2018, dated 2021)
